Experiment [1] addresses T1, human muscarinic M4 receptor (Homo sapiens, UniProt P08173).
T1 construct: expressed in transfected cells
T1 sequence (P08173 1-479): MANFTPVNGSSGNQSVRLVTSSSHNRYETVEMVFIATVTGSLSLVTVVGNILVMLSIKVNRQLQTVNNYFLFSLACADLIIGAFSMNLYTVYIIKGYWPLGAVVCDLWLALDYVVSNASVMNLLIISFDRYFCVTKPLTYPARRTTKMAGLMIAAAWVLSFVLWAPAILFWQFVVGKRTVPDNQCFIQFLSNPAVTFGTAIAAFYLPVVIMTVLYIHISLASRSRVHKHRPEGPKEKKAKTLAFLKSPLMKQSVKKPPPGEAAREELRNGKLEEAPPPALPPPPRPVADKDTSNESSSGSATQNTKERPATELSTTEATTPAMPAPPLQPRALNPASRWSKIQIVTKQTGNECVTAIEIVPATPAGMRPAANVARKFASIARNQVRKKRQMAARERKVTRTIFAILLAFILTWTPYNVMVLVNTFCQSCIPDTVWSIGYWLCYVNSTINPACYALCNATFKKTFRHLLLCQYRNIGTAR
Nature of the experiment: Alphascreen Surefire phospho-ERK1/2 functional assay, M4. Format: cell-based. The following applies: for EC50: read-out: pEC50 M4 (converted); for Emax: CHO, read-out: % Emax cf. ACh (M4), CHO cells stably expressing human M4; for Emax / % Emax cf. ACh (M4): Emax relative to ACh. On the procedure: (§1) ERK1/2 phosphorylation is a downstream consequence of both Gq/11 and Gi/o protein coupled receptor activation, making it highly suitable for the assessment of M1, M3 (Gq/11 coupled) and M2, M4 receptors (Gi/o coupled), rather than using different assay formats for different receptor subtypes. CHO cells stably expressing the human muscarinic M1, M2, M3 or M4 receptor were plated (25K/well) onto 96-well tissue culture plates in MEM-alpha+10% dialysed FBS. Once adhered, cells were serum-starved overnight. Agonist stimulation was performed by the addition of 5 μL agonist to the cells for 5 min (37° C.). Media was removed and 50 μL of lysis buffer added. After 15 min, a 4 μL sample was transferred to 384-well plate and 7 μL of detection mixture added. […]
(Bead proximity is the source of the signal in Alpha formats.)

The target of experiment [2] is T2, human muscarinic M1 receptor (Homo sapiens, UniProt P11229).
T2 sequence (P11229 1-460): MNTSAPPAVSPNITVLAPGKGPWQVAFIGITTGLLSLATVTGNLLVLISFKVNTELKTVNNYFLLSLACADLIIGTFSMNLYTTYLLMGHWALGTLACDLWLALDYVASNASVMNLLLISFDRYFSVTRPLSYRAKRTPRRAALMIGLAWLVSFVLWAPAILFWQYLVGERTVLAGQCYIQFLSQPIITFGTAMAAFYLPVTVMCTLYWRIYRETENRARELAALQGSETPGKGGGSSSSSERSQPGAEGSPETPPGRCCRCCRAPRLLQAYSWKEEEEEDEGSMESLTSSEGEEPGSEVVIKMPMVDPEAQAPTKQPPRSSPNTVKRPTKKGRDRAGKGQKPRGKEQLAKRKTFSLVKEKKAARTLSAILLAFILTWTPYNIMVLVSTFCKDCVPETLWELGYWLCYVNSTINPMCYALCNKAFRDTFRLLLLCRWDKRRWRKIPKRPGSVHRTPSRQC
Nature of the experiment: Alphascreen Surefire phospho-ERK1/2 functional assay, M1. Format: cell-based. As to conditions: for EC50: agonist 5 min, 37° C.; for Emax: CHO, read-out: % Emax cf. ACh (M1), CHO cells stably expressing human M1; for Emax / % Emax cf. ACh (M1): Emax relative to ACh. The method, then:
as §1

The mark [3] stands for this setting: CHO cells stably expressing human M4, agonist 5 min, 37° C.
The mark [4] stands for this setting: CHO cells stably expressing human M1, read-out: pEC50 M1 (converted).
Setting [5] is: CHO cells stably expressing human M4.
Where [6] appears, read: CHO cells stably expressing human M1.
Setting [7] is: pEC50 M1, CHO cells stably expressing human M1.

Where two headings read alike, the source gives them in different places.

What is called Emax is the size of the effect at its maximum, as opposed to the concentration needed.

As for `Cc1noc(N2CCCC(N3CCC4(CC3)CNC(=O)O4)CC2)n1` (racemic) [10-3 Racemic mixture], the EC50 in experiment [1] (setting [3]) is greater than 20000 nM; in experiment [2] (setting [4]), 372 nM. Further, the Emax in experiment [1] turned out to be 10%; in experiment [2], 97%.

For `CCN(C(C)=O)C1CCN(C2CCCN(c3nc(C)no3)CC2)CC1` (racemic) [10-11 Racemic mixture], the figures for the EC50 in experiment [1] (setting [3]) and in experiment [2] (setting [4]) were 219 nM and 3980 nM, respectively. In addition, the values for the Emax in experiment [1] and in experiment [2] were 101% and 56%, respectively.

In the case of `CCOC(=O)[C@H]1[C@@H]2CN(C3CC4(CCN(c5nc(C)no5)C4)C3)C[C@@H]21` (single isomer, unassigned) [2-3 Isomer 2], the EC50 in experiment [1] (setting [3]) is 513 nM; in experiment [2] (setting [4]) it was greater than 20000 nM. The Emax was determined as 32% in experiment [1] and 9% in experiment [2].

As to `Cc1noc(N2CC3(CCC(N4CCC(n5cccn5)CC4)C3)C2)n1` (single isomer, unassigned) [3-1 Isomer 2], the EC50 was 1230 nM in experiment [1] (setting [3]) and 8320 nM in experiment [2] (setting [4]). The results for the Emax in experiment [1] and in experiment [2] were 68% and 58%, respectively.

Turning to `Cc1noc(N2CC3CC(C2)C3N2CCC(n3cccn3)CC2)n1` (single isomer, unassigned) [5-1 Isomer 1], the values for the EC50 in experiment [1] (setting [3]) and in experiment [2] (setting [4]) were 1260 nM and greater than 20000 nM, respectively. The Emax in experiment [1] was 55%; in experiment [2] it was 9%.

With `Cc1noc(N2C3CCC2CC(N2CCC4(CC2)CNC(=O)C4)C3)n1` (single isomer, unassigned) [6-2 Isomer 1], the “% Emax cf. ACh (M4)” value in experiment [1] (setting [5]) was “(9) %”. The EC50 in experiment [1] (setting [3]) was greater than 20000 nM; in experiment [2] (setting [7]) it was 158 nM. Also, the “% Emax cf. ACh (M1)” value in experiment [2] (setting [6]) is “(34) %”.

Regarding `Cc1noc(N2C3CCC2CC(N2CCC4(CC2)CNC(=O)C4)C3)n1` (single isomer, unassigned) [6-2 Isomer 2], in experiment [1] (setting [5]), the “% Emax cf. ACh (M4)” value is given as “(39) %”. In addition, the EC50 in experiment [1] (setting [3]) was 170 nM; in experiment [2] (setting [7]), 63.1 nM. In experiment [2] (setting [6]), the “% Emax cf. ACh (M1)” value is “(81) %”.

For the molecule `Cc1noc(N2C3CCC2CC(N2CCC4(CC2)CNC(=O)O4)C3)n1` (single isomer, unassigned) [6-4 Isomer 1], the “% Emax cf. ACh (M4)” value in experiment [1] (setting [5]) is on record as “(15) %”. Further, the results for the EC50 in experiment [1] (setting [3]) and in experiment [2] (setting [4]) were greater than 20000 nM and 240 nM, respectively. Also, the “% Emax cf. ACh (M1)” value in experiment [2] (setting [6]) is “(49) %”.

In the case of `Cc1noc(N2C3CCCC2CC(N2CCC(n4cccn4)CC2)C3)n1` (single isomer, unassigned) [8-1 Isomer 2], the EC50 in experiment [1] (setting [3]) is 1260 nM; in experiment [2] (setting [4]) it was greater than 20000 nM. The maximum response (Emax) in experiment [1] came out at 38%; in experiment [2] it was 24%.

As to `Cc1noc(N2C3CCCC2CC(N2CCC4(CC2)CNC(=O)C4)C3)n1` (single isomer, unassigned) [8-2 Isomer 1], the EC50 was greater than 20000 nM in experiment [1] (setting [3]) and 214 nM in experiment [2] (setting [4]). Further, the Emax is 9% in experiment [1] and 30% in experiment [2].

Take `Cc1noc(N2C3CCCC2CC(N2CCC(C(=O)NC4(C)CCC4)CC2)C3)n1` (single isomer, unassigned) [8-4 Isomer 1]: the results for the EC50 in experiment [1] (setting [3]) and in experiment [2] (setting [4]) were 646 nM and 575 nM, respectively. For the same molecule, the values for the Emax in experiment [1] and in experiment [2] were 76% and 98%, respectively.

Consider `Cc1noc(N2CCCC(N3CCC(n4cccn4)CC3)CC2)n1` (single isomer, unassigned) [10-1 Isomer 1], for which the EC50 was 129 nM in experiment [1] (setting [3]) and 1350 nM in experiment [2] (setting [4]). The results for the maximum response (Emax) in experiment [1] and in experiment [2] were 73% and 32%, respectively.

As for `Cc1noc(N2CCCC(N3CCC(n4cccn4)CC3)CC2)n1` (single isomer, unassigned) [10-1 Isomer 2], the “% Emax cf. ACh (M4)” value in experiment [1] (setting [5]) is on record as “(72) %”. For the same molecule, the EC50 in experiment [1] (setting [3]) was 525 nM; in experiment [2] (setting [4]), 6610 nM. Besides, the “% Emax cf. ACh (M1)” value in experiment [2] (setting [6]) is recorded as “(43) %”.

As for `Cc1noc(N2CCCC(N3CCC4(CC3)CNC(=O)C4)CC2)n1` (single isomer, unassigned) [10-2 Isomer 2], the “% Emax cf. ACh (M4)” value in experiment [1] (setting [5]) is reported as “(15) %”. Further, the “pEC50 M4” value in experiment [1] (setting [3]) is reported as less than 4.70. Besides, the “% Emax cf. ACh (M1)” value in experiment [2] (setting [6]) was “(53) %”. Also, the EC50 in experiment [2] (setting [4]) is 490 nM.

For the molecule `CCC1NC(=O)OC12CCN(C1CCCN(c3nc(C)no3)CC1)CC2` (single isomer, unassigned) [10-4 Isomer 1], the “% Emax cf. ACh (M4)” value in experiment [1] (setting [5]) is “(85) %”. Besides, the figures for the EC50 in experiment [1] (setting [3]) and in experiment [2] (setting [4]) were 100 nM and 676 nM, respectively. Also, in experiment [2] (setting [6]), the “% Emax cf. ACh (M1)” value was “(123) %”.

Turning to `CCC1NC(=O)OC12CCN(C1CCCN(c3nc(C)no3)CC1)CC2` (single isomer, unassigned) [10-4 Isomer 2], in experiment [1] (setting [5]), the “% Emax cf. ACh (M4)” value is on record as “(64) %”. For the same molecule, the EC50 was 23.4 nM in experiment [1] (setting [3]) and 55 nM in experiment [2] (setting [4]). Also, in experiment [2] (setting [6]), the “% Emax cf. ACh (M1)” value is “(58) %”.

Consider `CCC1NC(=O)OC12CCN(C1CCCN(c3nc(C)no3)CC1)CC2` (single isomer, unassigned) [10-4 Isomer 3], for which the “% Emax cf. ACh (M4)” value in experiment [1] (setting [5]) is listed as “(71) %”. Also, the EC50 in experiment [1] (setting [3]) is 2190 nM; in experiment [2] (setting [4]) it was 9330 nM. Besides, the “% Emax cf. ACh (M1)” value in experiment [2] (setting [6]) is on record as “(81) %”.

For `CCC1NC(=O)OC12CCN(C1CCCN(c3nc(C)no3)CC1)CC2` (single isomer, unassigned) [10-4 Isomer 4], in experiment [1] (setting [5]), the “% Emax cf. ACh (M4)” value is on record as “(36) %”. Further, the EC50 in experiment [1] (setting [3]) is 871 nM; in experiment [2] (setting [4]) it was greater than 20000 nM. The “% Emax cf. ACh (M1)” value in experiment [2] (setting [6]) is reported as “(18) %”.

As to `Cc1noc(N2CCCC(N3CCC4(CC3)OC(=O)NC4(C)C)CC2)n1` (single isomer, unassigned) [10-5 Isomer 1], the EC50 in experiment [1] (setting [3]) is 219 nM; in experiment [2] (setting [4]), greater than 20000 nM. For the same molecule, the figures for the Emax in experiment [1] and in experiment [2] were 33% and 21%, respectively.

As for `Cc1noc(N2CCCC(N3CCC(N4C[C@H](F)C[C@@H]4CO)CC3)CC2)n1` (single isomer, unassigned) [10-7 Isomer 2], the “% Emax cf. ACh (M4)” value in experiment [1] (setting [5]) is reported as “(76) %”. For the same molecule, the EC50 in experiment [1] (setting [3]) was 398 nM; in experiment [2] (setting [4]), 4270 nM. Further, the “% Emax cf. ACh (M1)” value in experiment [2] (setting [6]) is listed as “(70) %”.

`Cc1noc(N2CCCC(N3CCC(N4CC(F)(F)C[C@@H]4CO)CC3)CC2)n1` (single isomer, unassigned) [10-8 Isomer 1]: the results for the EC50 in experiment [1] (setting [3]) and in experiment [2] (setting [4]) were 93.3 nM and 676 nM, respectively. Moreover, the Emax in experiment [1] is 91%; in experiment [2], 37%.

As to `Cc1noc(N2CCCC(N3CCC(N4CC(F)(F)C[C@@H]4CO)CC3)CC2)n1` (single isomer, unassigned) [10-8 Isomer 2], in experiment [1] (setting [5]), the “% Emax cf. ACh (M4)” value is reported as “(73) %”. Moreover, the EC50 in experiment [1] (setting [3]) was 295 nM; in experiment [2] (setting [4]), 1550 nM. Moreover, the “% Emax cf. ACh (M1)” value in experiment [2] (setting [6]) is on record as “(35) %”.

For the molecule `CC[C@H]1CCC(=O)N1C1CCN(C2CCCN(c3nc(C)no3)CC2)CC1` (single isomer, unassigned) [10-9 Isomer 2], the EC50 in experiment [1] (setting [3]) was 479 nM; in experiment [2] (setting [4]) it was 1320 nM. The values for the Emax in experiment [1] and in experiment [2] were 56% and 53%, respectively.

`Cc1noc(N2CCCC(N3CCC(N4CCCC4c4cnn(C)c4)CC3)CC2)n1` (single isomer, unassigned) [10-10 Isomer 1b]: the EC50 in experiment [1] (setting [3]) was 513 nM; in experiment [2] (setting [4]) it was greater than 20000 nM. For the same molecule, the Emax in experiment [1] was determined as 56%. In addition, in experiment [2] (setting [6]), the “% Emax cf. ACh (M1)” value was “(6) %”.

(Values after patent publication US10858352B2, “Pharmaceutical compounds” (Heptares Therapeutics Limited, priority 2018, dated 2020).)
